Assay results as given in US6004933A, “Cysteine protease inhibitors” (Cortech Inc., priority 1998, dated 1999).

How the values were obtained:
YAMA (CPP32, Caspase 3) = molecular target: T1, YAMA (CPP32, Caspase 3) (Homo sapiens, UniProt P42574); experiment: Caspase inhibition, photometric, Ac-DEVD-pNA; format: biochemical; conditions: 20 μM Ac-DEVD-pNA, 37° C.
T1 sequence (P42574 29-175 limits assumed): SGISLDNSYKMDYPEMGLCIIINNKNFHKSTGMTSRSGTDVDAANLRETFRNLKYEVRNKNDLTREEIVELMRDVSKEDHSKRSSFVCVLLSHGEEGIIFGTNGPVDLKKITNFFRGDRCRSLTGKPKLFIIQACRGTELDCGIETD
T1 sequence (P42574 176-277 limits assumed): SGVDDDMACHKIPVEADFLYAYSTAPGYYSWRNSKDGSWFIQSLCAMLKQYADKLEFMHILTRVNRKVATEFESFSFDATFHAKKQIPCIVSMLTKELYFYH
Method: (§1) Inhibition constants were measured photometrically for YAMA (caspase 3), Lap3 (caspase 7), FLICE (caspase 8), Mch2 (caspase 6) and granzyme B. The buffer used for all enzymes consisted of 50 mM Hepes, 100 mM sodium chloride, 10% (v/v) sucrose, 0.1% (v/v) CHAPS and 10 mM dithiothreitol (DTT). In the case of granzyme B, only 1 mM DTT was used.
(§2) Enzymes were incubated at 37° C. for 10 minutes in 100 μL well plates and synthetic substrate and inhibitor were added simultaneously. Final substrate concentration was 20 μM in all cases. The synthetic substrate Ac-DEVD-pNA was used for all caspases and Succ-AAPD-pNA was used for granzyme B. The appearance of product was monitored over 10 minutes at 410 nm using a Spectromax 340 and IC50 curves were calculated from the initial slopes at varying inhibitor concentrations and inhibition constants were calculated.

Mch2 (Caspase 6) = molecular target: T2, Mch2 (Caspase 6) (Homo sapiens, UniProt P55212); experiment: Caspase inhibition, photometric, Ac-DEVD-pNA; format: biochemical; conditions: 20 μM Ac-DEVD-pNA, 37° C.
T2 sequence (P55212 24-179 limits assumed): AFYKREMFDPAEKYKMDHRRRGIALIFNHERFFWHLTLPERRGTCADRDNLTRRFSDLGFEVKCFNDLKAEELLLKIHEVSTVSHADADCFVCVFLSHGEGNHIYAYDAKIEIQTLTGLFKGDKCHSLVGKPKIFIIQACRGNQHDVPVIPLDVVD
T2 sequence (P55212 194-293 limits assumed): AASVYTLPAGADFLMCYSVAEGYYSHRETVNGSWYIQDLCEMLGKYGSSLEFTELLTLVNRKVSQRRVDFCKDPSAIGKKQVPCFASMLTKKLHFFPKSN
Method: as §1, §2

Lap3 (Mch3, Caspase 7) = molecular target: T3, Lap3 (Mch3, Caspase 7) (Homo sapiens, UniProt P55210); experiment: Caspase inhibition, photometric, Ac-DEVD-pNA; format: biochemical; conditions: 20 μM Ac-DEVD-pNA, 37° C.
T3 sequence (P55210 24-198 limits assumed): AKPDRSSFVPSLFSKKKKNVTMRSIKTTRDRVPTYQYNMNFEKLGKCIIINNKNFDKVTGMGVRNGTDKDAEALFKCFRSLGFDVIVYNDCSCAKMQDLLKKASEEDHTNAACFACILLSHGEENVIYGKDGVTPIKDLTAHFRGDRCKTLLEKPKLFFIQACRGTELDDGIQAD
T3 sequence (P55210 207-303 limits assumed): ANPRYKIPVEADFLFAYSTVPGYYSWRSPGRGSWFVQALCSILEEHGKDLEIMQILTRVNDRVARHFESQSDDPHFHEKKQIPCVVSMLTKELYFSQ
Method: as §1, §2

FLICE (Mch5, Caspase 8) = FLICE (Mch5, Caspase 8) (Homo sapiens, UniProt Q14790); experiment: Caspase inhibition, photometric, Ac-DEVD-pNA; format: biochemical; conditions: 20 μM Ac-DEVD-pNA, 37° C.; read-out: Ki, FLICE (Mch5, Caspase 8)
Method: as §1, §2

ICE (Caspase 1) = molecular target: T4, ICE (Caspase 1) (Homo sapiens, UniProt P29466); experiment: THP-1 assay: IL-1β release after LPS stimulation (assay for ICE inhibition); format: cell-based
T4 construct: endogenous in cells; host or cells: THP-1
T4 sequence (P29466 120-297 limits assumed): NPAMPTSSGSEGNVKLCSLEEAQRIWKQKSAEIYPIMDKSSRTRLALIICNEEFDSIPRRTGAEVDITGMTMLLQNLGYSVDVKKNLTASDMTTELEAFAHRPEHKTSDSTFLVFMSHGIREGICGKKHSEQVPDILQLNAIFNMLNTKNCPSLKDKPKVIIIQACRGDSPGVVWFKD
T4 sequence (P29466 317-404 limits assumed): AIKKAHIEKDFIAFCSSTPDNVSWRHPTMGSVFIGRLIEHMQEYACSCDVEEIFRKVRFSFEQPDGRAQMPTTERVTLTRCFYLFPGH
From the text: To examine the ability of the caspase family inhibitors, CQ-0010 and CQ-0011, to inhibit human IL-1β production, two different assays were employed. In the first, the human monocytic cell line, THP-1, was stimulated with E. coli lipopolysaccharide (LPS serotype 0127-88; Sigma Chemical Co., St. Louis, Mo.) in the presence and absence of the inhibitors. This cell line synthesizes and secretes IL-1β and TNFα as well as other cytokines upon LPS stimulation. The second assay used freshly-isolated human whole blood similarly stimulated with LPS.
Two×10^6 THP-1 cells were added to 24 well plates in 1 ml RPMI supplemented with 1% FCS, glutamine and 5×10^-5 M mercaptoethanol. Two-fold serial dilutions of the inhibitors, CQ-0010, CQ-0011 and the commmercially available Ac-YVAD-CHO (Biomol Research Laboratories Inc., Plymouth Meeting, Pa.), were preincubated with the cells for 15 min at 37° C. LPS was then added to a final concentration of 1 ug/ml and the plates incubated for 4 hr at 37° C. All incubations were carried out in a humidified incubator with 5% CO2 in air.
Supernatants were harvested after 4 hr and assayed by ELISA for the presence of TNFα and IL-1β using commercially available kits (PerSeptive Biosystems, Framingham, Mass. and R&D Systems, Minneapolis, Minn., respectively).

granzyme B = granzyme B (Homo sapiens, UniProt P10144); experiment: Granzyme B inhibition, photometric, Succ-AAPD-pNA; format: biochemical; conditions: 20 μM Succ-AAPD-pNA, 1 mM DTT
Method: as §1, §2

cathepsin L = molecular target: T5, cathepsin L (Homo sapiens, UniProt P07711); experiment: Cathepsin L inhibition, fluorometric assay with Cbz-Phe-Arg-NHMec; format: biochemical; conditions: human enzyme; IC50 at substrate << Km taken as Ki; pH 5.5
T5 construct: purchased Athens Research and Technology Inc. (Athens,Ga.)
From the text: (§3) The enzyme cathepsin B (E.C. 3.4.22.01) was obtained from Calbiochem (San Diego, Calif.); cathepsin L (E.C. 3.4.22.15) from Athens Research and Technology Inc. (Athens,Ga.); and papain (E.C. 3.4.22.02) from Sigma (St. Louis, Mo.).
(§4) Cbz-Phe-Arg-NHMec (--NHMec: 7-(4-methyl)coumarylamide) was obtained from BachemCalifornia, Inc. (Torrance, Calif.). All other reagents were obtained from Sigma.
(§5) The enzymes used in enzyme assays with methylcoumarylamides were activated as described elsewhere (Barret, et al., Methods Enzymol. 80:535-561 (1981); Bromme, et al., Biochem. J, 264: 475-481 (1989). Cathepsin L was assayed in 0.34 M sodium acetate buffer, pH 5.5, containing 0.1% (v/v) Brij 35, 2.5 mM dithiothreitol (DTT) and 5 mM Na2 -EDTA. Cathepsin B was assayed under the same conditions, except that the buffer was adjusted to pH 6. Papain was assayed in 50 mM sodium phosphate buffer, pH 6.8, containing 0.2 M sodium chloride, 2 mM DTT, 1 mM Na2 -EDTA and 0.025% Brij 35 (v/v).
(§6) Initial velocities of enzymatic reactions were measured spectrofluorometrically (λex =370 nm, λem 460 nm) with a Quanta Master QM1 (Photon Technologies International, South Brunswick, N.J.). Stock solutions of the enzymes were diluted into the buffer, equilibrated at room temperature, and preincubated without or with increasing concentrations of inhibitors. The reactions were started by addition of substrate. A total of 4 to 8 inhibitor concentrations were used to determine IC50 values. In all cases the substrate concentrations were much smaller than the Km value, and the IC50 values measured approximated the Ki directly (Cheng, et al., Biochemical Pharmacology, 22:3099-3108 (1973)).

cathepsin B = molecular target: T6, cathepsin B (Homo sapiens, UniProt P07858); experiment: Cathepsin B inhibition, fluorometric assay with Cbz-Phe-Arg-NHMec; format: biochemical; conditions: human enzyme; IC50 at substrate << Km taken as Ki; pH 6
T6 construct: purchased Calbiochem (San Diego, Calif.)
From the text: as §3, §4, §5, §6

papain = molecular target: T7, papain (Carica papaya, UniProt P00784); experiment: Papain inhibition, fluorometric assay with Cbz-Phe-Arg-NHMec; format: biochemical; conditions: IC50 at substrate << Km taken as Ki; pH 6.8
T7 construct: purchased Sigma (St. Louis, Mo.)
T7 sequence (P00784 134-345): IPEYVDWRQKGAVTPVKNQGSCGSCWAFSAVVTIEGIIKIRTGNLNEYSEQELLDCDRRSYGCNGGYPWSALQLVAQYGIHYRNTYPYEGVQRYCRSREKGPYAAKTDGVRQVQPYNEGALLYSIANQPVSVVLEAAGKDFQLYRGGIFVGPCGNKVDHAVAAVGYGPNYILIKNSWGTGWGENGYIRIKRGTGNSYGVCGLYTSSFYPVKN
From the text: as §3, §4, §5, §6

picornain 2A protease = experiment: Inhibitory activity against picornain 2A protease; format: biochemical; conditions: at 100 μM
gingipain R (RGP) = experiment: Gingipain assay, BAPNA cleavage at 405 nm; format: biochemical, human; conditions: 2 mM BAPNA, cell marked (IC50) in the Ki [nM] table
Method: All assays were carried out in a 96 well microtiter plate reader and cleavage of BAPNA (Nα-benzoyl-DL-arginine-p-nitroanilide hydrochloride) was detected at 405 nm.
All assays were performed as follows: 180 μl assay buffer (50 mM Tris, […], at pH 7.6) was mixed with 10 μl gingipain R (RGP). The mixture was incubated for 5 min. at room temperature to reduce and activate RGP. 10 μl of each inhibitor were added at various concentrations. These mixtures were incubated for 10 min. at room temperature to allow the inhibitors to complex with RGP. 50 μl of 10 mM BAPNA substrate was added. A two minute assay was performed with a final volume of 250 μl, and a final BAPNA concentration of 2 mM.
For this reason, two minute assays were performed whereby the Vmax in mOD/min change in absorbance at 405 nm was used as the initial velocity reading. In order to titrate RGP against leupeptin and to determine % activity, these velocity readings were transformed on a percent scale where the 100% control contained no inhibitor. The initial velocity values were also entered into Graphpad Prism regression program along with the various inhibitor concentrations to obtain the IC50 values. All data represents the minimum of duplicates, and at times triplicate sets.

T5 sequence (P07711 114-333): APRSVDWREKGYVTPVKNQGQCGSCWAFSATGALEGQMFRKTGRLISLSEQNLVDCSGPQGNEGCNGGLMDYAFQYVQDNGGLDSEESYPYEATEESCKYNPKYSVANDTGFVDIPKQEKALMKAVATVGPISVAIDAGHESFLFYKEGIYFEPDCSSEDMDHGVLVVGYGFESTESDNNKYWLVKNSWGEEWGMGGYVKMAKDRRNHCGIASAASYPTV
Sequence of granzyme B (P10144 21-247, species assumed): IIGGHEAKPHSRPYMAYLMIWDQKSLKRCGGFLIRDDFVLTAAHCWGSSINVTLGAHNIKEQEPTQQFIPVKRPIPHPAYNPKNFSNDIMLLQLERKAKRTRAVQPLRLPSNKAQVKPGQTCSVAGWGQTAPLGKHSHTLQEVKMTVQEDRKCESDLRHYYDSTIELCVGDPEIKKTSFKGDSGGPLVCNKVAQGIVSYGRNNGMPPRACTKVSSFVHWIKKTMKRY
Sequence of FLICE (Mch5, Caspase 8) (Q14790 217-374 limits assumed, species assumed): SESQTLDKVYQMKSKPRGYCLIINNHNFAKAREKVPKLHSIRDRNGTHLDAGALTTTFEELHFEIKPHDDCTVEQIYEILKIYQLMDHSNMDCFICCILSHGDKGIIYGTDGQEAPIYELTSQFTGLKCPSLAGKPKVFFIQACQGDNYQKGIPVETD
Sequence of FLICE (Mch5, Caspase 8) (Q14790 385-479 limits assumed, species assumed): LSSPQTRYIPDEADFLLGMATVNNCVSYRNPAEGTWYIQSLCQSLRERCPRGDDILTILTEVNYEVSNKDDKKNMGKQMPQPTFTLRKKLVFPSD

Compound	Ki (cathepsin L)	Ki (cathepsin B)	Ki (papain)	inhibition of picornain 2A protease (picornain 2A protease)	other results
CC(=O)N[C@@H](CC(=O)O)C(=O)N[C@H](C(=O)N[C@@H](CCC(=O)O)C(=O)NC(CC(=O)O)C(=O)c1nnc(-c2ccccc2)o1)C(C)C (stereo partly drawn) [CQ-0011, Acetyl-L-Aspartyl-Valyl-N-[1-[2-[(5-phenyl)-1,3,4-oxadiazolyl]carbonyl]-2-(carboxy)-ethyl]-L-glutamyl amide]	–	–	–	–	Ki (YAMA (CPP32, Caspase 3)): ≤ 0.1 µM; Ki (Mch2 (Caspase 6)): 6.7 µM; Ki (Lap3 (Mch3, Caspase 7)): ≤ 0.03 µM; Ki (FLICE (Mch5, Caspase 8)): ≤ 0.03 µM; IC50 (ICE (Caspase 1); LPS 1 ug/ml, 4 hr, ELISA, read-out: IC50 of reduction of IL1β release from THP1 cell line): 3 µM; potency in inhibiting IL1β production relative to CQ-0010 (fold less) (ICE (Caspase 1); THP-1 cells (FIG. 1; Table 4)): approximately 10 fold; Ki, Granzyme (granzyme B): Not Active
CC(=O)N[C@@H](CC(C)C)C(=O)N[C@@H](CC(C)C)C(=O)NC(CCCN=C(N)N)C(=O)c1noc(C)n1 (stereo partly drawn) [CQ-0008, Acetyl-L-leucyl-N-[1-[3-[5-methyl-1,2,4-oxadiazolyl]carbonyl]-4-(guanidino)-butyl]-L-leucyl amide]	0.00713 ± 0.00032 µM	1.24 ± 0.182 µM	8.59 ± 1.86 µM	–	–
Cc1cccc(Cc2nnc(C(=O)C(NC(=O)[C@@H]3CCCN3C(=O)[C@@H](NC(=O)OCc3ccccc3)C(C)C)C(C)C)o2)c1 (stereo partly drawn) [CE-2072, (Benzyloxycarbonyl)-L-valyl-N-[1-(2-[5-(3-methylbenzyl)-1,3,4-oxadiazolyl]carbonyl)-2-(S)-methylpropyl]-L-prolinamide]	–	–	–	100%	–
CC(=O)N[C@@H](CC(C)C)C(=O)N[C@@H](CC(C)C)C(=O)N[C@H](C=O)CCCNC(=N)N [Leupeptin, reference compound]	0.00062 ± 0.0001 µM	0.0061 ± 0.0012 µM	0.001 ± 6e-05 µM	–	IC50 (gingipain R (RGP)): 20.8 nM
Cc1cccc(Cc2nnc(C(=O)[C@@H](NC(=O)[C@H](Cc3ccccc3)NC(=O)[C@@H](CC(=O)O)CC(C)C)C(C)C)o2)c1 [CM-0019B, [[2-[5-(3-methylbenzyl)-1,3,4-oxadiazolyl]carbonyl]-2-(S)-methylpropyl]-L-phenylalanamide-(3R)-(isobutyl)succinic acid]	~0.1 µM	3 µM	0.085 µM	–	–
CC(C)[C@H](NC(=O)CCC(=O)OC(C)(C)C)C(=O)N1CCC[C@H]1C(=O)NC(Cc1ccccc1)C(=O)c1noc(Cc2cccc(C(F)(F)F)c2)n1 (stereo partly drawn) [CE-2060, (t-butoxysuccinyl)-L-valyl-N-[1-[3-[5-(3-trifluoromethylbenzyl)-1,2,4-oxadiazolyl]carbonyl]-2-benzylidone]-L-prolinamide]	–	–	–	100%	–
CC(=O)N[C@@H](CC(C)C)C(=O)N[C@@H](CC(C)C)C(=O)NC(C)C(=O)c1noc(C)n1 (stereo partly drawn) [CQ-0004, Acetyl-L-leucyl-N-[1-[3-[5-methyl]-1,2,4-oxadiazolyl]carbonyl]-ethyl-L-leucyl amide]	0.061 ± 0.014 µM	27.2 ± 1.9 µM	25.6 ± 5.34 µM	–	–
CC(=O)N[C@@H](CC(C)C)C(=O)N[C@@H](CC(C)C)C(=O)NC(CCCN=C(N)N)C(=O)c1nnc(-c2ccccc2)o1 (stereo partly drawn) [CQ-0002]	0.006 ± 0.00098 µM	0.324 ± 0.046 µM	1.2 µM	–	IC50 (gingipain R (RGP)): 28 nM
Carboxysuccinyl-L-valyl-N-[1-[3-[5-(3-trifluoromethylbenzyl)- 1,2,4-oxadiazolyl]carbonyl]-2-benzylidone]-L-prolinamide [CE-2061]	–	–	–	100%	–
